The values below come from patent publication US11123328B2 (UNIVERSITY HEALTH NETWORK, priority 2017, dated 2021).

Series [1] relates to Langendorff-perfused rabbit hearts. Kind of series: Calcium alternans by optical mapping in Langendorff-perfused rabbit hearts stressed by VF (Example 1). Conditions: for CaAR (calcium alternans ratio) / SD of CaAR (surrogate for spatial dyssynchrony): azumolene 20 μM; for SD of CaAR (surrogate for spatial dyssynchrony): n=8. An excerpt:
The term “cardiac dyssynchrony” as used herein means improper synchronization of calcium cycling in the heart or a part thereof, including for example temporal dyssynchrony and/or spatial dyssynchrony, optionally due to calcium leak from ryanodine type 2 receptor (RyR2) channels, leading to decreased calcium uptake and/or release in the sarcoplasmic reticulum (SR). RyR2 are found primarily in cardiac muscle and are a major mediator for SR release of calcium ions. Spatio-temporal dyssynchrony of calcium alternans can be measured by calculating a calcium alternans ratio (CaAR) for temporal mechanical dyssynchrony or by measuring the standard deviation (SD) of CaAR as a surrogate for spatial mechanical dyssynchrony. CaAR can be calculated as the amplitude of a Ca peak divided by the amplitude of a following Ca peak in a calcium transient measurement such as in FIG. 5. The smallest amplitude of Ca peak is divided by the largest amplitude of Ca peak. The larger the ratio the more similar the peak sizes. A ratio of 1 indicates no calcium alternans. Ratios of less than 1, optionally 0.8, 0.7 etc are indicative of cardiac dyssynchrony. Similarly mean standard deviations in calcium alternans ratios of greater than 0.05, greater than 0.06 or greater than 0.07 etc are indicative of cardiac dyssynchrony.
Their effect on temporal calcium alternans ratio (CaAR) before and after ventricular fibrillation (VF) (as a surrogate for temporal mechanical dyssynchrony) and standard deviation (SD) of CaAR from the anterior wall of left ventricular, which is used as a surrogate for spatial mechanical dyssynchrony, were assessed. […] Simultaneous optical mapping was performed. Calcium alternans are defined as beat-to-beat variability of 10% or more in calcium transient amplitudes.

Another series concerns animal hearts. Kind of series: Optical mapping and LVDP in hearts subjected to myopathic insults, azumolene pre-treated or not (Example 3). The following applies: for calcium alternans ratio map values: scale 0.00 to 0.40. The method, then:
FIGS. 6A and 6B are a schematic and images, respectively, of the experimental protocol of animal hearts, pre-treated or not with azumolene, subjected to myopathic insults.
The effect of azumolene was further investigated. Optical mapping and left ventricular developed pressure (LVDP) were measured at baseline and following inducement of myopathic insults to the hearts (see FIGS. 6A and 6B). […] FIGS. 8A and 8B show the occurrence of spatial dyssynchronic in untreated compared to azumolene-treated hearts.

The subject of series [2] is ventricular arrhythmia swine model. The following applies: previous work [4]; cited from earlier work.
The test system of series [3] is patients without known cardiac diseases. Kind of series: Safety of chronic oral dantrolene: ECG, echo, Holter, stress test in patients (Example 4).
Series [4] deals with patients without known cardiac disease. Nature of the series: Safety of chronic oral dantrolene, 10-year experience: ECG and echocardiogram (Example 5). An excerpt:
If more than 1 electrocardiogram and/or echocardiogram were available for any single patient, all were studied (to assess for any abnormality), but only the latest (with the longest therapy duration) was included in the analysis.

The subject of series [5] is patients without known cardiac diseases. The following applies: human, in vivo.
[6] abbreviates: azumolene pretreatment, following myopathic insults, FIG. 9.
[7] abbreviates: both, human, in vivo, 10.9 years.

Entries after “also recorded” stand apart in the source; their conditions may differ.

On to `O=C1CN(/N=C/c2ncc(-c3ccc(Br)cc3)o2)C(=O)N1` [azumolene], for which, in series [1], the “heterogeneity in calcium alternans in response to myopathic stress” value is reported as “minimizes heterogenity in calcium alternans”. Further, the results for the “CaAR (calcium alternans ratio)” value in series [1] (after 1st VF) and in series [1] (after 2nd VF) were 0.97±0.02 and 0.94±0.02, respectively. Also, the “SD of CaAR (surrogate for spatial dyssynchrony)” value was 0.025±0.003 in series [1] (after 1st VF) and 0.039±0.004 in series [1] (after 2nd VF). Moreover, the “spatial calcium release dyssynchrony (calcium release tracings)” value in series [1] (azumolene-treated vs untreated hearts after VF, FIG. 2) is listed as “reduced spacial calcium release dyssynchrony; also recorded: spatial calcium release disordering is abrogated”. Further, the “calcium alternans in ratio maps” value in series [1] (post 1st VF at 6.0 Hz, FIG. 5D vs 5B) is “fewer calcium alternans”. In the series with animal hearts (after myopathic insults, FIG. 7), the “mean calcium alternans index” value was “untreated-hearts increased significantly compared to azumolene-treated hearts”. Further, in the series with animal hearts (setting [6]), the LVDP entry is reported as “significantly improved”. Besides, in the series with animal hearts (setting [6]), the dp/dtmax result is “significantly improved”. Also, the “calcium alternans ratio map values” in the series on animal hearts (azumolene-treated heart at baseline, FIG. 8A) is on record as 0.025 to 0.05; with animal hearts (azumolene-treated heart post myopathic insults, FIG. 8A) it was 0.05 to 0.1. The “mean of standard deviation” value in the series with animal hearts (post myopathic insults, FIG. 8B) is listed as “significantly increased in the control group post myopathic insults compared to the azumolene-treated group”. Also, in the series with animal hearts (vs untreated hearts, FIG. 8A), the “spatial calcium release dyssynchrony” value is on record as “reduce spatial calcium release dyssynchrony”.
As to `O=C1CN(/N=C/c2ccc(-c3ccc([N+](=O)[O-])cc3)o2)C(O)=N1` [dantrolene], in series [1], the “heterogeneity in calcium alternans in response to myopathic stress” value is “minimizes heterogenity in calcium alternans”. Also, the “effect on the QT” value in series [2] is “did not affect the QT”. In addition, the PR in series [3] (chronic oral dantrolene (>3 months)) is listed as 173 ± 19 ms. For the same molecule, the “major cardiac events (life-threatening arrhythmia, sudden death, myocardial infarction)” value in series [3] (during dantrolene therapy, most >5 years) is given as “No major cardiac events”. Also, in series [4] (setting [7]), the “Number of patients with PR >200 ms” value is 1 (5) n (%) and the “Number of patients with QTc >460 ms” value is reported as 1 (5) n (%). The “QTc of the patient with QTc >460 ms” value in series [4] (female, human, in vivo) came out at 465 ms. Further, in series [4] (human, in vivo), the “Absolute change in average PR ± SD” value is 12 ± 8 (p = 0.14) ms; the “Absolute change in average QRS ± SD” value is 4 ± 3, (p = 0.71) ms; the “Absolute change in average QTc ± SD” value is listed as 12 ± 17, (p = 0.27) ms; the “PR of the patient with PR >200 ms” value was 222 ms. Also, in series [4] (in vivo), the “QRS or QTc prolongation” value is “did not have QRS or QTc prolongation”; the “conduction and repolarization parameters” value is “within normal limits”; the “dose-related QTc prolongation” value is given as “No dose-related QTc prolongation”; the “left ventricular (LV) size and systolic function” value is “normal”. In addition, the rhythm in electrocardiograms entry in series [4] (in vivo) is “sinus rhythm”. Also, in series [4] (mean 10.9±6 years follow-up), the “major cardiac events (serious arrhythmia, sudden death, or myocardial infarction)” value is reported as “no major cardiac events”. For the same molecule, in series [5], the “LV size and function” value is given as “normal”; the “arrhythmia in Holter or stress tests” value was “No major arrhythmia”; the “rest of the depolarization and repolarization parameters” value is given as “within normal limits”; the “rhythm in ECGs” value is reported as “sinus rhythm”. Moreover, in series [5] (po), the JTc came to 304 ± 79 ms; the QRS was found to be 98 ± 10 ms; the “QRS or QTc prolongation, arrhythmia, pauses, significant cardiac events” value was “did not have QRS or QTc prolongation, arrhythmia, pauses, or significant cardiac events”; the “effect on LV systolic function” value is reported as “No detrimental effect”. In series [5] (po), the mean heart rate is listed as 67 (±14).
